Article PMC4415987 (Biomarkers : biochemical indicators of exposure, response, …, 2009)

Columns and labels:
[1] = weaning rats given 1 mg MeHg kg−1 daily perinatally, cited from earlier work
MAO-B = molecular target: T1, MAO-B (Homo sapiens, UniProt P27338); assay: Platelet MAO-B activity; assay type: biochemical; settings: human platelets in vitro; for LOAEL toward MAO-B: not modified by MeHg addition
T1 sequence (P27338 1-520): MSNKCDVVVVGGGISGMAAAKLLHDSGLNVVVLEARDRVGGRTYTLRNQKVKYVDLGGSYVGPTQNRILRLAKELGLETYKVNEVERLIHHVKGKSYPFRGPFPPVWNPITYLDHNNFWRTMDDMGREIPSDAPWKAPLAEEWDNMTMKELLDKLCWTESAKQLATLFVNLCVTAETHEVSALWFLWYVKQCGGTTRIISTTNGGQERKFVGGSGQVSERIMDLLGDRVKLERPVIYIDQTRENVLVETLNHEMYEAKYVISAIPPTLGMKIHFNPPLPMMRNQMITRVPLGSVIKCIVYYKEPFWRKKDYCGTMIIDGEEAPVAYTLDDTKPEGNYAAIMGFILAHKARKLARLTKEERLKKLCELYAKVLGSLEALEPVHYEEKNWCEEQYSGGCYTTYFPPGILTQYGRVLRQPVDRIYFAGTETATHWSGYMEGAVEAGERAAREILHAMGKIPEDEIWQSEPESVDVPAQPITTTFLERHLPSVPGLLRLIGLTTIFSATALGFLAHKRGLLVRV

lymphocyte mAChRs = assay type: binding, human; settings: for LOAEL toward mAChRs: human lymphocytes in vitro, PCB values regardless of the presence of MeHg

Structure (SMILES) | LOAEL toward mAChRs (lymphocyte mAChRs) | LOAEL toward MAO-B (MAO-B) | other results
[CH3][Hg][Cl] [MeHg, methylmercury] | 1 µM | – | Hg concentration in the blood ([1]; ref Coccini et al. 2007a): 1.3 ± 0.4 µg/mL; Hg concentration in the brain ([1]; ref Coccini et al. 2007b): 1.5–2.8 ppm; inhibitory effect on MAO-B activity (MAO-B; MeHg up to 1 mM): negligible; IC50 (lymphocyte mAChRs; read-out: IC50, inhibition of [3H]QNB binding to lymphocyte mAChRs): 5 ± 0.9 µM
Clc1ccc(-c2cc(Cl)c(Cl)cc2Cl)cc1Cl [PCB-118] | 1 µM | 10 µM | –
Clc1ccc(-c2ccc(Cl)cc2Cl)cc1 [PCB-28] | 1 µM | 10 µM | –
Oc1c(Cl)cc(-c2ccc(Cl)c(Cl)c2)c(Cl)c1Cl [4-OH-PCB-107] | 1 µM | 10 µM | –
Clc1cc(Cl)c(-c2cc(Cl)c(Cl)cc2Cl)cc1Cl [PCB-153, 2,2′,4,4′,5,5′-hexachlorobiphenyl] | 1 µM | – | IC50, MAO-B activity (MAO-B; in the presence or absence of 1 mM MeHg): No effect
Clc1ccc(-c2ccc(Cl)c(Cl)c2)cc1Cl [PCB-77] | 0.1 µM | 10 µM | –
Clc1ccc(-c2ccc(Cl)c(Cl)c2Cl)cc1Cl [PCB-105] | 1 µM | 1 µM | –
